Measurements as given in ChEMBL document CHEMBL1155474, “8-THP-DHI analogs as potent Type I dual TIE-2/VEGF-R2 receptor tyrosine kinase inhibitors” (Bioorg Med Chem Lett, 2010).
Each block holds one compound with its values, some of them ahead of it. The source made the active and inactive calls. The calls are words filed in the database; no cut-off is given here.

Columns and labels:
SVR [1] = test: Antitumor activity against mouse SVR cells xenografted in nude mouse assessed as tumor inhibition at 1 mg/kg, po bid administered after 4 days tumor implantation for 10 days; format: functional
[2] = target: Epidermal growth factor receptor (Homo sapiens, UniProt P00533); test: Inhibition of EGFR
[3] = Inhibition of CDK at 3 uM
[4] = target: Glycogen synthase kinase-3 beta (Homo sapiens) (UniProt P49841); test: Inhibition of GSK3-beta at 3 uM
Insulin receptor = Insulin receptor (Homo sapiens, UniProt P06213); test: Inhibition of insulin receptor
[5] = Clearance in rat at 1 mg/kg, iv; format: ADME, organism-based; design: dose 1 mg/kg, route intravenous; conditions: in vivo
[6] = Inhibition of MAPK at 3 uM
[7] = target: Fibroblast growth factor receptor 3 (Homo sapiens) (UniProt P22607); test: Inhibition of FGFR3 at 3 uM
[8] = target: Vascular endothelial growth factor receptor 1 (Homo sapiens, UniProt P17948); test: Inhibition of VEGFR1 at 3 uM
HUVEC [9] = test: Inhibition of capillary tube formation in HUVEC; format: functional, cell-based; conditions: Homo sapiens
[10] = Cmax in rat at 10 mg/kg, po; format: ADME, organism-based; design: dose 10 mg/kg, route oral; conditions: in vivo
[11] = target: Vascular endothelial growth factor receptor 3 (Homo sapiens, UniProt P35916); test: Inhibition of VEGFR3 at 3 uM
[12] = target: Tyrosine-protein kinase Lck (Homo sapiens) (UniProt P06239); test: Inhibition of LCK at 3 uM
[13] = Terminal half life in rat at 1 mg/kg, iv; format: ADME, organism-based; design: dose 1 mg/kg, route intravenous; conditions: in vivo, read-out: beta t1/2 (converted)
[14] = target: Platelet-derived growth factor receptor beta (Homo sapiens) (UniProt P09619); test: Inhibition of PDGFRbeta at 3 uM
SVR [15] = test: Antitumor activity against mouse SVR cells xenografted in nude mouse assessed as complete tumor regressions at 1 mg/kg, po bid administered after 4 days tumor implantation for 10 days; format: functional
[16] = Volume of distribution in rat at 1 mg/kg, iv; format: ADME, organism-based; design: dose 1 mg/kg, route intravenous; conditions: in vivo
[17] = AUC (0 to infinity) in rat at 10 mg/kg, po; format: ADME, organism-based; design: time infinity, dose 10 mg/kg, route oral; conditions: plasma
[18] = Inhibition of JNK at 3 uM
SVR [19] = test: Antitumor activity against mouse SVR cells xenografted in nude mouse assessed as tumor inhibition at 3 mg/kg, po bid administered after 4 days tumor implantation for 10 days; format: functional
Angiopoietin-1 receptor = Angiopoietin-1 receptor (Homo sapiens, UniProt Q02763); test: Inhibition of human recombinant TIE-2 by time resolved fluorescence measurements
SVR [20] = test: Antitumor activity against mouse SVR cells xenografted in nude mouse assessed as partial tumor regressions at 1 mg/kg, po bid administered after 4 days tumor implantation for 10 days; format: functional
[21] = Plasma concentration in mouse SVR cells xenografted in nude mouse at 1 mg/kg, po bid administered after 4 days tumor implantation for 10 days measured after 2 hrs post dose; format: ADME, organism-based; design: dose 1 mg/kg, route oral
[22] = target: T1, Vascular endothelial growth factor receptor 2 (Homo sapiens, UniProt P35968); test: Inhibition of VEGF-stimulated VEGFR2 autophosphorylation in HUVEC
[23] = Metabolic stability in rat liver S9 fraction; format: ADME, subcellular
SVR [24] = test: Antitumor activity against mouse SVR cells xenografted in nude mouse assessed as tumor regressions at 3 mg/kg, po bid administered after 4 days tumor implantation for 10 days; format: functional
[25] = Terminal half life in rat at 10 mg/kg, po; format: ADME, organism-based; design: dose 10 mg/kg, route oral; conditions: in vivo, read-out: beta t1/2 (converted)
[26] = target: Tyrosine-protein kinase Blk (Homo sapiens) (UniProt P51451); test: Inhibition of Blk at 3 uM
[27] = Plasma concentration in mouse SVR cells xenografted in nude mouse at 3 mg/kg, po bid administered after 4 days tumor implantation for 10 days measured after 2 hrs post dose; format: ADME, organism-based; design: dose 3 mg/kg, route oral
Aorta = test: Ex vivo antiangiogenic activity in rat aortic ring assessed as inhibition of VEGF-stimulated microvessel growth; format: functional, tissue-based
[28] = Oral bioavailability in rat at 10 mg/kg; format: ADME, organism-based; conditions: in vivo
[29] = target: Tyrosine-protein kinase Fyn (Homo sapiens) (UniProt P06241); test: Inhibition of Fyn at 3 uM
[30] = target: Tyrosine-protein kinase Lyn (Homo sapiens) (UniProt P07948); test: Inhibition of Lyn at 3 uM
[31] = Inhibition of cytochrome P450
[32] = Inhibition of PKC at 3 uM
HUVEC [33] = test: Cytotoxicity against HUVEC; format: cell-based; conditions: human
[34] = AUC (0 to infinity) in rat at 1 mg/kg, iv; format: ADME, organism-based; design: time infinity, dose 1 mg/kg, route intravenous; conditions: plasma
[35] = target: T1, Vascular endothelial growth factor receptor 2; test: Inhibition of human recombinant VEGFR2 by time resolved fluorescence measurements
[36] = target: T2, Serine/threonine-protein kinase Chk1 (Homo sapiens) (UniProt O14757); test: Inhibition of CHK1 at 3 uM
T2 sequence (whole entry): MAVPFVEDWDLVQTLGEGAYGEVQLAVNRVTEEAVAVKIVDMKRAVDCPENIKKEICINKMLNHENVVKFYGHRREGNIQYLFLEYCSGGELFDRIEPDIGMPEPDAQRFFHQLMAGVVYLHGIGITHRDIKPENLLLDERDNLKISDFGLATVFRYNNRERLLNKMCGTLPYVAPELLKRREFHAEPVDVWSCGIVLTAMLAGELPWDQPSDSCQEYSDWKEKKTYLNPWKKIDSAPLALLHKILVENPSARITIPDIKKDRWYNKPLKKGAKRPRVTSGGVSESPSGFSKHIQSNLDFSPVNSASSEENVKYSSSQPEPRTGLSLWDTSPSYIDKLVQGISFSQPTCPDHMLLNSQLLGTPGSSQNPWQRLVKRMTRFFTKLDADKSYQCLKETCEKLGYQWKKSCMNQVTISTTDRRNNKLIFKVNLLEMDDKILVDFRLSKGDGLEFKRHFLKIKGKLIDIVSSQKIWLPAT

[37] = target: Tyrosine-protein kinase Yes (Homo sapiens) (UniProt P07947); test: Inhibition of YES at 3 uM
[38] = target: Dual specificity mitogen-activated protein kinase kinase 1 (Homo sapiens) (UniProt Q02750); test: Inhibition of MEK1 at 3 uM
Dual specificity mitogen-activated protein kinase kinase 1 (Homo sapiens), sequence (Q02750 whole entry): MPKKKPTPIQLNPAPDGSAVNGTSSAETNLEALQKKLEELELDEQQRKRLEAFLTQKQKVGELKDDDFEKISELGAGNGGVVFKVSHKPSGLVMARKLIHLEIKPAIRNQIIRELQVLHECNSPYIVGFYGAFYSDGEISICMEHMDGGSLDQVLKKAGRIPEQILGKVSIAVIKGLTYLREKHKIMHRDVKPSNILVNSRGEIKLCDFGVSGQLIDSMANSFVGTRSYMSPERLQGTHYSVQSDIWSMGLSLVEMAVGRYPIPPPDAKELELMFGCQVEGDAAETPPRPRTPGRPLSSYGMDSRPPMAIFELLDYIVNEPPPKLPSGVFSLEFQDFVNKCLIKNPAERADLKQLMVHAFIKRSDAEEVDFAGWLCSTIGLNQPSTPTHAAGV

T1 sequence (P35968 whole entry): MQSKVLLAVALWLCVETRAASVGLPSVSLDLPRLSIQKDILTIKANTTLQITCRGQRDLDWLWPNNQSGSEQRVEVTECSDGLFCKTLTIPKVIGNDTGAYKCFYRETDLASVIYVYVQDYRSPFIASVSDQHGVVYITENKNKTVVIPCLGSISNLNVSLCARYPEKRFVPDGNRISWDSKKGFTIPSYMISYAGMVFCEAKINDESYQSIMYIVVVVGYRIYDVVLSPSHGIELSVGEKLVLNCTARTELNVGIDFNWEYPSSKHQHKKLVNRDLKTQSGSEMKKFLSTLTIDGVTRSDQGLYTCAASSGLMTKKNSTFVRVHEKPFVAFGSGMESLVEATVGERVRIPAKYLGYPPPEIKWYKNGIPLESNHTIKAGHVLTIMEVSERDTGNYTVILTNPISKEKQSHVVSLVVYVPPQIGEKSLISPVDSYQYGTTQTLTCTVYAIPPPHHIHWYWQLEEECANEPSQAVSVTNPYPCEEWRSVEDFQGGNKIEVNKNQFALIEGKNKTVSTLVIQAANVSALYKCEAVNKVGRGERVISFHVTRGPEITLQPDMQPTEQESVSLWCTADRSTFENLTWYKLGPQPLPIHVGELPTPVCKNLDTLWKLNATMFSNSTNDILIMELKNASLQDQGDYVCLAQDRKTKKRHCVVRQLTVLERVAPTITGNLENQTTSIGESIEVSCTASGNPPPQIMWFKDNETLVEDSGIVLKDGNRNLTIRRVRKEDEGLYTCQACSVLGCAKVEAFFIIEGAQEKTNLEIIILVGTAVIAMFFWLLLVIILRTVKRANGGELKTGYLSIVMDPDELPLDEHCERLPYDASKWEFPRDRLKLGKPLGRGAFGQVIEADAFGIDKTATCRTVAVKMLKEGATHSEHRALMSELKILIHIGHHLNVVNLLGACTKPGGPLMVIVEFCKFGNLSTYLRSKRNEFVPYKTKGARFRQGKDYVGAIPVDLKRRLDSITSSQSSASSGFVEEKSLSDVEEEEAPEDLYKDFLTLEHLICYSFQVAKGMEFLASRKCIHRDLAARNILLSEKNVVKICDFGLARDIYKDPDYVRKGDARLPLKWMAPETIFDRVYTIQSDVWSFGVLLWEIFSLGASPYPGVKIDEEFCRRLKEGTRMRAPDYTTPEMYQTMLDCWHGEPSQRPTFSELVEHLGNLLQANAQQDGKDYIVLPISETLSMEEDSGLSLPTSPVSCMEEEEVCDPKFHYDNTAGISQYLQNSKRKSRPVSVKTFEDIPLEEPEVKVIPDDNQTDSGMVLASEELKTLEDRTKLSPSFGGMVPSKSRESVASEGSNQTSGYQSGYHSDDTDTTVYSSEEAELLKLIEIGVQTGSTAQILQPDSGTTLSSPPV
Insulin receptor, sequence (P06213 28-758 limits assumed): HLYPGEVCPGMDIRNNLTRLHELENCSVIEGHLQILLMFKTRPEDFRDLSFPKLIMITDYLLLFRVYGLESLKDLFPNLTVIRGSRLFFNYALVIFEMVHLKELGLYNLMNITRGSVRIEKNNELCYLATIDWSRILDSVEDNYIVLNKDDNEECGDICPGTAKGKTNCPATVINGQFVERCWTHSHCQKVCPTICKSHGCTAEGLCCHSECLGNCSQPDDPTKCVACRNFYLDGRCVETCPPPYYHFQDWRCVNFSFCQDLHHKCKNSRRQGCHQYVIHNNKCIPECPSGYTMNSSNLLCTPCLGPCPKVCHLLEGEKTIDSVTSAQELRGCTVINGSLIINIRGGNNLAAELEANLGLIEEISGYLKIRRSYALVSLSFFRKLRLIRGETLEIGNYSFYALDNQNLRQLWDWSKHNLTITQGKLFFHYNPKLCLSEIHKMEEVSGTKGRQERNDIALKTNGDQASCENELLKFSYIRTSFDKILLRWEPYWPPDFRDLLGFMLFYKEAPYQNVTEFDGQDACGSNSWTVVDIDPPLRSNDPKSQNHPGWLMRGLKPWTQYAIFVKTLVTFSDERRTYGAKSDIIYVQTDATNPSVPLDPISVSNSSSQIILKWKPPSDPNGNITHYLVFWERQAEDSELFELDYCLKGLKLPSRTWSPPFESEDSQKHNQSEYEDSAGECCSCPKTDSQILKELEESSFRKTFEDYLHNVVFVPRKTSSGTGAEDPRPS
Insulin receptor, sequence (P06213 763-1382 limits assumed): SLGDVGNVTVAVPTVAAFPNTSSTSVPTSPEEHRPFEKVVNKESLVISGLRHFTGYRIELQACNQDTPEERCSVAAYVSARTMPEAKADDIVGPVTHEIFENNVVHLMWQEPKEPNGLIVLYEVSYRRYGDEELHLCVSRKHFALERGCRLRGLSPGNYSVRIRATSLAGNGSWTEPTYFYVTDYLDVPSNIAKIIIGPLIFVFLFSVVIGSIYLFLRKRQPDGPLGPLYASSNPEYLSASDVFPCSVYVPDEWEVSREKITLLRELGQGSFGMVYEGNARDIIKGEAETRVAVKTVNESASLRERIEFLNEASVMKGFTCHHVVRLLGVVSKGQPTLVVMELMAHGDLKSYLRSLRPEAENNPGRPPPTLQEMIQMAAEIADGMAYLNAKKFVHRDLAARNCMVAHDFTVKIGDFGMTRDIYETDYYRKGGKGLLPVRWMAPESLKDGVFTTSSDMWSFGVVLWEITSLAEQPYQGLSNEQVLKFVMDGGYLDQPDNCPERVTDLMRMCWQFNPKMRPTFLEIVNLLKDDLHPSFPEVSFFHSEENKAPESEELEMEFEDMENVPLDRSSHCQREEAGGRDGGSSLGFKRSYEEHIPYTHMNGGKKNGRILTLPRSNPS
Vascular endothelial growth factor receptor 1, sequence (P17948 whole entry): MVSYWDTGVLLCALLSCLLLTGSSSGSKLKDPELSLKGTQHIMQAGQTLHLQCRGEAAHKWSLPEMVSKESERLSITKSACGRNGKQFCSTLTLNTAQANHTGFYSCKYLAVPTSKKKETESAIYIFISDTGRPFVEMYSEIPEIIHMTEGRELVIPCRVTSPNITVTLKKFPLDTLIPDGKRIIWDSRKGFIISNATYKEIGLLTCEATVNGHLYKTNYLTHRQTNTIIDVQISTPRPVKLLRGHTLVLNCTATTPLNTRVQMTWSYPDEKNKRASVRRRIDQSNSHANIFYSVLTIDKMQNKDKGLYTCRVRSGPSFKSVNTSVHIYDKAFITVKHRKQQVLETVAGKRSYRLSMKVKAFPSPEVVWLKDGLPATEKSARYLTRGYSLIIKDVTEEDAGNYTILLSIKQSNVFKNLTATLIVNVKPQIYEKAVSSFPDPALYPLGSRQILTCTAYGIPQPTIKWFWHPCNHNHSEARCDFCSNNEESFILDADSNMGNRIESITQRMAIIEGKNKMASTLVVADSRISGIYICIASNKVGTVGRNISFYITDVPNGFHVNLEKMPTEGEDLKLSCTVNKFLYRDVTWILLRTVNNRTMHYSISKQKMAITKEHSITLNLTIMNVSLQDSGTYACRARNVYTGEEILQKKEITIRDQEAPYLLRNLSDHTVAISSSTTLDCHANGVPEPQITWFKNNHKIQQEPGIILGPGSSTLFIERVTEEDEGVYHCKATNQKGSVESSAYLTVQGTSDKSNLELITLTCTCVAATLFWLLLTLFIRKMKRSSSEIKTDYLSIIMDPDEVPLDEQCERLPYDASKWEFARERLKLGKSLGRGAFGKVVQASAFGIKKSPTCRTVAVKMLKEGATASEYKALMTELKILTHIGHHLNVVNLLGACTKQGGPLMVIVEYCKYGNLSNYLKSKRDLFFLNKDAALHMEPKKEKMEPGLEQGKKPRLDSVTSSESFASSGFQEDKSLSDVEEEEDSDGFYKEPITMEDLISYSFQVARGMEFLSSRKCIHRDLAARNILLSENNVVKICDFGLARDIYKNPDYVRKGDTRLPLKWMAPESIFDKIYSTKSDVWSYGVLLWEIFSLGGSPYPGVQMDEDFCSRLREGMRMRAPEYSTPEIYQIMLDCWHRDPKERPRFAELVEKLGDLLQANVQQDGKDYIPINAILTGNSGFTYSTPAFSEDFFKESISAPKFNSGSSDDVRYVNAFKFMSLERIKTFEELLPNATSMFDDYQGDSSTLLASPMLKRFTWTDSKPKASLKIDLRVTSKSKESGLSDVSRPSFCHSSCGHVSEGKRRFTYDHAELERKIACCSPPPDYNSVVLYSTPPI
Tyrosine-protein kinase Lck (Homo sapiens), sequence (P06239 2-509 limits assumed): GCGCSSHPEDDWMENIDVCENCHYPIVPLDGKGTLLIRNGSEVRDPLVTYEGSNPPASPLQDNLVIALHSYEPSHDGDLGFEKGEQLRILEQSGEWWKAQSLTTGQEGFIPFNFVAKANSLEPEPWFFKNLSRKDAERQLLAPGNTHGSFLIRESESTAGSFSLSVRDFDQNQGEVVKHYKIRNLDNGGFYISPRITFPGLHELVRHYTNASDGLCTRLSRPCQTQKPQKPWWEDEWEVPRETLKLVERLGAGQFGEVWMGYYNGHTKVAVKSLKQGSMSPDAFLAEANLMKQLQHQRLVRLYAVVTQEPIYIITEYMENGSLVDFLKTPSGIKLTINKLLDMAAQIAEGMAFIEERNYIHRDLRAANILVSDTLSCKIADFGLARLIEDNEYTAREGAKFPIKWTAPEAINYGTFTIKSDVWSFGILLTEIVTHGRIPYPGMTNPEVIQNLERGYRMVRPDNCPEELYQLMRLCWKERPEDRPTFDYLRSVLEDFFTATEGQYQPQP

IC50 [2]: > 1000 nM
inhibition [3]: inactive
inhibition [4]: inactive
IC50 (Insulin receptor): > 1000 nM
clearance [5]: 20 mL/min/kg
inhibition [6]: inactive
inhibition [7]: 100%
IC50 [8]: 16 nM
Cmax [10]: 154 ng/mL
IC50 [11]: 9 nM
inhibition [12]: > 90%
half-life [13]: 1.9 h
inhibition [14]: > 90%
Vd [16]: 3.2 L/kg
AUC(0-inf) [17]: 1260 ng·h/mL
inhibition [18]: inactive
IC50 (Angiopoietin-1 receptor): 3 nM
concentration at 2 h [21]: 321 nM
IC50 [22]: 10 nM
Stability [23]: Stable
half-life [25]: 3.9 h
inhibition [26]: > 90%
concentration at 2 h [27]: 950 nM
bioavailability [28]: 15%
inhibition [29]: > 90%
inhibition [30]: > 90%
INH [31]: > 10 µM
inhibition [32]: inactive
AUC(0-inf) [34]: 862 ng·h/mL
IC50 [35]: 11 nM
inhibition [36]: inactive
inhibition [37]: > 90%
inhibition [38]: inactive
Structure (SMILES): CC(C)Cn1c2ccc(C3CCCCO3)cc2c2c3c(c4c(c21)CCc1nn(C)cc1-4)C(=O)NC3 (racemic)
inhibition in vivo at 1 mg/kg (SVR [1]): 59%
EC50 (HUVEC [9]): 2 nM
Activity (SVR [15]): 10%
inhibition in vivo at 3 mg/kg (SVR [19]): 61%
Activity (SVR [20]): 10%
Activity (SVR [24]): 10%
EC50 (Aorta): 0.9 nM
Activity (HUVEC [33]): Non-toxic

IC50 [2]: > 1000 nM
inhibition [3]: inactive
inhibition [4]: inactive
IC50 (Insulin receptor): > 1000 nM
clearance [5]: 15 mL/min/kg
inhibition [6]: inactive
inhibition [7]: 100%
IC50 [8]: 28 nM
Cmax [10]: 255 ng/mL
IC50 [11]: 5 nM
inhibition [12]: > 90%
half-life [13]: 1.5 h
inhibition [14]: > 90%
Vd [16]: 2 L/kg
AUC(0-inf) [17]: 1890 ng·h/mL
inhibition [18]: inactive
IC50 (Angiopoietin-1 receptor): 10 nM
concentration at 2 h [21]: 158 nM
IC50 [22]: 10 nM
Stability [23]: Stable
half-life [25]: 2.8 h
inhibition [26]: > 90%
concentration at 2 h [27]: 900 nM
bioavailability [28]: 16%
inhibition [29]: > 90%
inhibition [30]: > 90%
INH [31]: > 10 µM
inhibition [32]: inactive
AUC(0-inf) [34]: 1160 ng·h/mL
IC50 [35]: 24 nM
inhibition [36]: inactive
inhibition [37]: > 90%
inhibition [38]: inactive
Structure (SMILES): CCCCn1c2ccc(C3CCCCO3)cc2c2c3c(c4c(c21)CCc1nn(C)cc1-4)C(=O)NC3 (racemic)
inhibition in vivo at 1 mg/kg (SVR [1]): 52%
EC50 (HUVEC [9]): 0.6 nM
inhibition in vivo at 3 mg/kg (SVR [19]): 63%
Activity (SVR [24]): 10%
EC50 (Aorta): 1.2 nM
Activity (HUVEC [33]): Non-toxic
